These results are taken from PubChem BioAssay AID328 (DTP/NCI, 2004).

The assay concerns BDF1 mice, P388 leukemia ip, median survival T/C. The assay can be described thus: NCI In Vivo Anticancer Drug Screen. Data for tumor model P388 Leukemia (intraperitoneal) in B6D2F1 (BDF1) mice. As to conditions: endpoint: median survival time, higher = longer survival. Put shortly: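 Mice carrying the transplantable tumour receive compound or vehicle. Survival is followed in each arm, and the treated measure is divided by the vehicle measure.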

Where [1] appears, read: dose: 100.0 mg/kg/injection, schedule: Q01DX009 (ip), vehicle: Klucel (hydroxypropylcellulose) (HPC).
Where [2] appears, read: dose: 100.0 mg/kg/injection, schedule: Q04DX003 (ip), vehicle: Klucel (hydroxypropylcellulose) (HPC).
Where [3] appears, read: dose: 200.0 mg/kg/injection, schedule: Q01DX009 (ip), vehicle: Klucel (hydroxypropylcellulose) (HPC).
[4] abbreviates: dose: 200.0 mg/kg/injection, schedule: Q04DX003 (ip), vehicle: Klucel (hydroxypropylcellulose) (HPC).
Where [5] appears, read: dose: 400.0 mg/kg/injection, schedule: Q01DX009 (ip), vehicle: Klucel (hydroxypropylcellulose) (HPC).
The mark [6] stands for this setting: dose: 400.0 mg/kg/injection, schedule: Q04DX003 (ip), vehicle: Klucel (hydroxypropylcellulose) (HPC).
Setting [7] is: dose: 50.0 mg/kg/injection, schedule: Q04DX003 (ip), vehicle: saline with Tween-80.
Where [8] appears, read: dose: 200.0 mg/kg/injection, schedule: Q04DX003 (ip), vehicle: saline with Tween-80.
Setting [9] is: dose: 50.0 mg/kg/injection, schedule: Q01DX001 (ip), vehicle: saline.
[10] abbreviates: dose: 100.0 mg/kg/injection, schedule: Q01DX001 (ip), vehicle: saline.
[11] abbreviates: dose: 200.0 mg/kg/injection, schedule: Q01DX001 (ip), vehicle: saline.
The mark [12] stands for this setting: dose: 50.0 mg/kg/injection, schedule: Q01DX009 (ip), vehicle: saline.
The mark [13] stands for this setting: dose: 50.0 mg/kg/injection, schedule: Q01DX009 (ip), vehicle: saline with Tween-80.
The mark [14] stands for this setting: dose: 100.0 mg/kg/injection, schedule: Q01DX009 (ip), vehicle: saline with Tween-80.
The mark [15] stands for this setting: dose: 200.0 mg/kg/injection, schedule: Q01DX009 (ip), vehicle: saline with Tween-80.
The mark [16] stands for this setting: dose: 25.0 mg/kg/injection, schedule: Q01DX009 (ip), vehicle: saline with Tween-80.

Toxic doses and inconclusive results are not listed.

For the compound `O=CC(O)C(O)C(O)C(O)CO` (stereo not given), the T/C was 107 % of control (dose: 31.25 mg/kg/injection, schedule: Q01DX010 (ip), vehicle: saline); 115 % of control (dose: 62.5 mg/kg/injection, schedule: Q01DX010 (ip), vehicle: saline); 115 % of control (dose: 125.0 mg/kg/injection, schedule: Q01DX010 (ip), vehicle: saline); 96 % of control (dose: 0.2 grams/kg/injection, schedule: Q03DX003 (ip), vehicle: water); 107 % of control (dose: 250.0 mg/kg/injection, schedule: Q01DX010 (ip), vehicle: saline); 97 % of control (dose: 0.4 grams/kg/injection, schedule: Q03DX003 (ip), vehicle: water). Moreover, the T/C is 102 % of control (dose: 0.8 grams/kg/injection, schedule: Q03DX003 (ip), vehicle: water); 93 % of control (dose: 1.5 grams/kg/injection, schedule: Q03DX003 (ip), vehicle: water); 102 % of control (dose: 3.0 grams/kg/injection, schedule: Q03DX003 (ip), vehicle: water); 98 % of control (dose: 6.0 grams/kg/injection, schedule: Q03DX003 (ip), vehicle: water); 95 % of control (dose: 12.0 grams/kg/injection, schedule: Q03DX003 (ip), vehicle: water); 101 % of control (dose: 16.0 grams/kg/injection, schedule: Q03DX003 (ip), vehicle: water).
As to `CC1(C)C=C(C(Br)c2cccc(Cl)c2)C(=O)c2ccccc21` (stereo not given), the T/C runs as follows: under setting [1], 105 % of control; under setting [2], 104 % of control; under setting [3], 120 % of control; under setting [4], 104 % of control; under setting [5], 100 % of control; under setting [6], 95 % of control.
For the compound `O=S1(=O)CC(N2CCCCC2)C2=C(CCN(c3ccccc3)C2)O1` (stereo not given), the T/C (dose: 100.0 mg/kg/injection, schedule: Q04DX002 (ip), vehicle: saline with Tween-80) is 112 % of control; the T/C (dose: 200.0 mg/kg/injection, schedule: Q04DX002 (ip), vehicle: saline with Tween-80) was 95 % of control; the T/C (dose: 400.0 mg/kg/injection, schedule: Q04DX002 (ip), vehicle: saline with Tween-80) was 98 % of control.
As to `NC(=O)NC(C(=O)O)(c1ccccc1)C1CCC1` (stereo not given), the T/C is 99 % of control under setting [7]; 91 % of control (dose: 100.0 mg/kg/injection, schedule: Q04DX003 (ip), vehicle: saline with Tween-80); 95 % of control under setting [8]; 95 % of control (dose: 400.0 mg/kg/injection, schedule: Q04DX003 (ip), vehicle: saline with Tween-80).
Consider `COC(=O)CCCNC1CCCCC1`, for which the T/C by setting is: under setting [9], 107 % of control; under setting [10], 114 % of control; under setting [11], 102 % of control.
For the compound `OC(c1cc(C(F)(F)F)nc2c(F)cccc12)C1CCCCN1` (stereo not given), the T/C runs as follows: (dose: 100.0 mg/kg/injection, schedule: Q01DX001 (ip), vehicle: saline with Tween-80) 91 % of control; (dose: 200.0 mg/kg/injection, schedule: Q01DX001 (ip), vehicle: saline with Tween-80) 95 % of control; (dose: 400.0 mg/kg/injection, schedule: Q01DX001 (ip), vehicle: saline with Tween-80) 100 % of control.
As to `O=C(c1ccccc1)N1CCC2OC2C1` (stereo not given), the T/C under setting [12] is 94 % of control; the T/C (dose: 100.0 mg/kg/injection, schedule: Q01DX009 (ip), vehicle: saline) was 109 % of control; the T/C (dose: 200.0 mg/kg/injection, schedule: Q01DX009 (ip), vehicle: saline) is 100 % of control.
For the compound `O=C(/C=C/c1ccc(OCc2ccccc2)cc1)c1cccs1`, the T/C reads like this: under setting [13], 98 % of control; under setting [14], 92 % of control.
As for `CCCCCCNc1c(F)c(C#N)c(F)c(F)c1C#N`, the T/C reads like this: under setting [13], 103 % of control; under setting [14], 93 % of control; under setting [15], 110 % of control.
As for `ClC(c1ccccc1)(c1ccccc1)c1ccccc1`, the T/C was 100 % of control (dose: 100.0 mg/kg/injection, schedule: Q04DX003 (ip), vehicle: other); 108 % of control (dose: 200.0 mg/kg/injection, schedule: Q04DX003 (ip), vehicle: other); 104 % of control (dose: 400.0 mg/kg/injection, schedule: Q04DX003 (ip), vehicle: other).
For `O=C(NC(=O)c1c(F)cccc1F)Nc1ccc(Cl)c2ccccc12`, the T/C is 91 % of control under setting [16], 100 % of control under setting [13] and 90 % of control under setting [14].
For the compound `Cc1ccc2c(c1)C(c1ccccc1)(c1ccccc1)OC2=O`, the T/C reads like this: under setting [14], 100 % of control; under setting [15], 90 % of control; (dose: 400.0 mg/kg/injection, schedule: Q01DX009 (ip), vehicle: saline with Tween-80) 100 % of control.
`CC1(O)C=CC(=O)C=C1`: the T/C is 157 % of control (dose: 25.0 mg/kg/injection, schedule: Q01DX009 (ip), vehicle: water) and 173 % of control (dose: 50.0 mg/kg/injection, schedule: Q01DX009 (ip), vehicle: water).
Turning to `CCCCCCCCCCCCc1c(C(OC)OC)[nH]c(=S)[nH]c1=O`, the T/C reads like this: under setting [1], 107 % of control; under setting [2], 104 % of control; under setting [3], 88 % of control; under setting [4], 100 % of control; under setting [5], 96 % of control; under setting [6], 100 % of control.
As for `COc1ccc(/C=C(/C#N)c2ccccc2)cc1`, the T/C reads like this: under setting [16], 93 % of control; under setting [13], 97 % of control; under setting [14], 103 % of control; under setting [15], 111 % of control.
With `CC(=O)O[C@H]1CC[C@@]2(C)C(=CC[C@H]3[C@@H]4CC[C@H](O)[C@@]4(C)CC[C@@H]32)C1`, the T/C runs as follows: under setting [2], 104 % of control; under setting [4], 100 % of control; under setting [6], 90 % of control.
Take `CN1CCN(c2ccc([N+](=O)[O-])c3nonc23)CC1`: the T/C is, setting by setting: (dose: 10.0 mg/kg/injection, schedule: Q01DX009 (ip), vehicle: saline with Tween-80) 100 % of control; (dose: 20.0 mg/kg/injection, schedule: Q01DX009 (ip), vehicle: saline with Tween-80) 100 % of control; (dose: 20.0 mg/kg/injection, schedule: Q04DX003 (ip), vehicle: saline with Tween-80) 100 % of control; (dose: 40.0 mg/kg/injection, schedule: Q01DX009 (ip), vehicle: saline with Tween-80) 99 % of control; (dose: 40.0 mg/kg/injection, schedule: Q04DX003 (ip), vehicle: saline with Tween-80) 92 % of control.
As for `Cc1cccc(C(=O)C=C(C(F)(F)F)C(F)(F)F)c1`, the T/C was 110 % of control (dose: 6.25 mg/kg/injection, schedule: Q01DX009 (ip), vehicle: saline with Tween-80); 155 % of control (dose: 12.5 mg/kg/injection, schedule: Q01DX009 (ip), vehicle: saline with Tween-80); 119 % of control (dose: 12.5 mg/kg/injection, schedule: Q04DX003 (ip), vehicle: saline with Tween-80); 105 % of control (dose: 12.5 mg/kg/injection, schedule: Q04DX003 (sc), vehicle: saline with Tween-80); 150 % of control under setting [16]; 104 % of control (dose: 25.0 mg/kg/injection, schedule: Q04DX003 (ip), vehicle: saline with Tween-80). Also, the T/C by setting is: (dose: 25.0 mg/kg/injection, schedule: Q04DX003 (sc), vehicle: saline with Tween-80) 115 % of control; under setting [7], 119 % of control; (dose: 50.0 mg/kg/injection, schedule: Q04DX003 (sc), vehicle: saline with Tween-80) 120 % of control.
As to `CCCC(N)C(=O)c1ccccc1` (stereo not given), the T/C is, setting by setting: (dose: 25.0 mg/kg/injection, schedule: Q01DX009 (ip), vehicle: saline) 109 % of control; under setting [12], 109 % of control.
Consider `CCCCN(CCCC)CCOC(=O)c1ccc([N+](=O)[O-])cc1`, for which the T/C under setting [9] was 100 % of control, the T/C under setting [10] was 100 % of control and the T/C under setting [11] was 100 % of control.
In the case of `CC(NC(=O)C(N)CSC(c1ccccc1)(c1ccccc1)c1ccccc1)C(=O)O` (stereo not given), the T/C is 113 % of control (dose: 88.0 mg/kg/injection, schedule: Q04DX003 (ip), vehicle: saline with Tween-80); 122 % of control (dose: 88.0 mg/kg/injection, schedule: Q04DX003 (ip), vehicle: saline); 195 % of control under setting [8].
